Test results taken from patent publication US12528783B2, “PqsR inverse agonists” (priority 2020, dated 2026).

What was measured:
[1] = test system: signal molecule production (HHQ, PQS); settings: at 15 μM; cited from earlier work
[2] = test system: virulence factor pyocyanin production; settings: in cellulo; read-out: inhibition of virulence factor pyocyanin production IC50; cited from earlier work
[3] = test system: P. aeruginosa pyocyanin production; test: Pyocyanin assay; assay type: cell-based; settings: Pseudomonas aeruginosa, PA14, 16 h, read-out: IC50-value towards pyocyanin production, PA14 in PPGAS medium, 16 h
Procedure: Inhibition of P. aeruginosa pyocyanin production by compounds was determined photometrically as described before. In short, an overnight culture of PA14 in PPGAS medium was washed, diluted in medium to a start OD600 of 0.02, and incubated for 16 h (37° C., 200 rpm, relative humidity 75%) in the presence of test compounds. Then, cultures were extracted with chloroform and re-extracted with 0.2 M HCl. Protonated red colored pyocyanin was determined by measuring OD520 and normalizing to OD600.

[4] = Kinetic Turbidimetric Aqueous Solubility; assay type: physicochemical; settings: aqueous buffer, kinetic from dmso stock, PBS buffer, room temperature
Procedure: Kinetic Turbidimetric Aqueous Solubility at room temperature for 5 min. Test compound was diluted in PBS buffer to give a range of concentrations (typically 0.4, 2, 4, 20, 40, 100, and 200 μM, final DMSO concentration 2%) and incubated at room temperature for 5 min. Absorbance was measured at a wavelength of 620 nm and the solubility was estimated from the concentration of test compound that produces an increase in absorbance above the vehicle control (i.e., […]). Data was analyzed by fitting a four parameter sigmoidal function to the measured and normalized absorbances and AUC calculation providing access to Log S (decadic logarithm of the solubility).

[5] = Metabolic stability in mouse liver microsomes (MLM); assay type: in vitro ADME; settings: 1 μM compound, 0.5 mg/mL MLM, 1 mM NADPH, 37° C., read-out: half-life (t1/2) towards MLM
Procedure: For the evaluation of phase I metabolic stability, the compound (1 μM) was incubated with 0.5 mg/mL MLM (Corning) and 1 mM NADPH at 37° C. for 0, 5, 10, 15 and 30 min. The metabolic stability of Verapamil, Diphenhydramine and Benzydamine (1 μM each) were determined in parallel to confirm the enzymatic activity of the MLM. The incubation was stopped by addition of 2 volumes of acetonitrile containing internal standard (1 μM Leucine Enkephaline). Samples were centrifuged (15 min, 3,500 rpm). Concentration of the remaining test compound at the different time points was analyzed by HPLC-MS/MS and used to determine half-life (t1/2).

PqsR = molecular target: T1, PqsR (Pseudomonas aeruginosa, UniProt Q9I4X0); test: PqsR inverse agonistic activity, reporter gene assay in E. coli; assay type: cell-based
T1 construct: expressed in transfected cells; host or cells: Escherichia coli DH5a carrying pEAL08-2
T1 sequence (Q9I4X0 whole entry): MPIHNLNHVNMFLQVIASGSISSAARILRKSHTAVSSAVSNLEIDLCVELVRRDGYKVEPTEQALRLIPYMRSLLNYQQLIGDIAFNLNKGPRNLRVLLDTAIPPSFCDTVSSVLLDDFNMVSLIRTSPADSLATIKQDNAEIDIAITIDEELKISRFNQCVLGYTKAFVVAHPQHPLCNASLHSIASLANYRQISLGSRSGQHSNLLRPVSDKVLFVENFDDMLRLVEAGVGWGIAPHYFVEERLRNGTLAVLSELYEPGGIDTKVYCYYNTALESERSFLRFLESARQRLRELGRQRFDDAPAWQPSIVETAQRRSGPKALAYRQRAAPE
Procedure: Inhibition of pqsR-dependent gene expression of test compounds was determined in an E. coli based-galactosidase reporter gene assay. Escherichia coli DH5a was transfected with pEAL08-2 plasmid encoding pqsR under control of promoter tac and β-galactosidase reporter gene lacZ under control of promoter pqsA. Antagonistic effects of compounds were evaluated in the presence of/in competition to 50 nM PQS. A positive control was used to ensure the reliability of individual assays. First, PQS was diluted in methanol and added to the wells of a glass coated 96-deep-well plate, and the solvent was evaporated. Then, compounds were added in 5 μL DMSO to final concentrations of 0.001-10 μM. Overnight cultures of E. coli DH5a×pEAL08-2 were diluted 1:100 in LB medium with ampicillin (50 μg/ml) and incubated at 37° C. with shaking until it reached an OD600 of 0.2. Finally, 995 μL of culture was added to each well and the β-galactosidase activity was determined by ortho-nitrophenyl-β-galactoside conversion in permeabilized cells after a 2.5 h incubation period (37° C., 180 rpm). OD600, OD420, and OD550 were measured using POLARstar Omega (BMG Labtech, Ortenberg, Germany), and the activity was expressed as ratio of the slope of B-galactosidase activity between basal control (no PQS) and solvent control. IC50 values of antagonists were determined by variation of the concentration of the test compounds.

[6] = test system: production of signal molecules HHQ and PQS; settings: QS inhibitors targeting PqsA; read-out: IC50, reduction of production of signal molecules HHQ and PQS; cited from earlier work

| SMILES | reduction of HHQ production [1] | reduction of PQS production [1] | IC50 [2] | IC50 [3] | solubility at 5 min [4] | half-life at 1 μM [5] | IC50 (PqsR) | IC50 [6] |
| --- | --- | --- | --- | --- | --- | --- | --- | --- |
| CCCCCCCc1[nH]c2ccc([N+](=O)[O-])cc2c(=O)c1C(N)=O [2-heptyl-6-nitro-4-oxo-1,4-dihydroquinoline-3-carboxamide] | 54% | 37% | 2000 nM |  |  |  |  |  |
| FC(F)c1cccc(Nc2ccc3[nH]c(CSc4ccnc(C(F)(F)F)c4)nc3c2)c1 [Compound 37] |  |  |  | 101 to 200 nM | > 10 µM | > 1 h | ≤ 50 nM |  |
| Fc1ccc(Nc2ccc3[nH]c(CSc4ccnc(C(F)(F)F)c4)nc3c2)c(F)c1 [Compound 45] |  |  |  | 101 to 200 nM | > 25 µM | > 1 h | ≤ 50 nM |  |
| O=[N+]([O-])c1cc(-c2ncc(CNc3cc(Cl)nc(C(F)(F)F)c3)cn2)ccc1Cl [Compound 08] |  |  |  | 101 to 200 nM | > 10 µM | > 1 h |  |  |
| NC(=O)c1cccc(Nc2ccc3[nH]c(CSc4ccnc(C(F)(F)F)c4)nc3c2)c1 [Compound 36] |  |  |  |  | > 50 µM | 0.517 to 1 h | 251 to 1000 nM |  |
| O=[N+]([O-])c1cccc(-c2ncc(CNc3cc(Cl)nc(C(F)(F)F)c3)cn2)c1 [Compound 09] |  |  |  | 201 to 500 nM | > 10 µM | 0.517 to 1 h |  |  |
| Nc1cccc(F)c1C(=O)O [Compound 6FABA] |  |  |  |  |  |  |  | ~100000 nM |
